Test results: patent US20020132817A1, “Heterocyclic compounds, their production and use” (priority 1998, published 2002)
pIC50: −log10 of the molar value. Marks after values point to notes of the source that are not given here.

How the values were obtained:
[1] = molecular target: T1, substance P receptor (Homo sapiens, UniProt P25103); assay: Radioligand receptor binding inhibitory activity using receptor from human lymphoblast cells (IM-9); conditions: 125I-BHSP radioligand, receptor from IM-9 cells, 25° C. for 30 minutes
T1 construct: The receptor was prepared from human lymphoblast cells (IM-9); endogenous in cells; host or cells: IM-9 human lymphoblast cells (membrane preparation)
Experimental: Radioligand receptor binding inhibitory activity Binding inhibitory activity using receptor from human lymphoblast cells (IM-9)
The receptor was prepared from human lymphoblast cells (IM-9). IM-9 cells (2×10^5 cells/ml) were inoculated and incubated for 3 days (one liter), which was then subjected to centrifuge for 5 minutes at 500×g to obtain cell pellets. […] The residue was washed twice with 30 ml of the above-mentioned buffer, which was then preserved frozen (−80° C.) as a specimen of the receptor.
The specimen was suspended in a reaction buffer (50 mM Tri-HCl buffer (pH 7.4), 0.02% bovine serum albumin, 1 mM phenylmethylsulfonyl fluoride, […], […] bacitracin, 3 mM manganese chloride) and 100 ul portion was the suspension was used in the reaction. […] The amount of nonspecific binding was determined by adding substance P at a final concentration of 2×10^−6M. After the reaction, using a cell harvester (290 PHD, Cambridge Technology, Inc, U.S.A.), rapid filtration was carried out through a glass filter (GF/B, Whatman, U.S.A.) to stop the reaction. After washing three times with 250 ul of 50 mM of Tris-HCl buffer (pH 7.4) containing 0.02% bovine serum albumin, the radioactivity remaining on the filter was determined with a gamma counter. Before use, the filter was immersed in 0.1% polyethyleneimine for 24 hours and air-dried.

[2] = test system: plasma extravasation induced by capsaicin in trachea of guinea pigs; assay: Inhibitory effect on plasma extravasation induced by capsaicin in trachea of guinea pigs; type: in vivo; conditions: for ED50: Cavia porcellus, iv, 5 minutes before capsaicin, Evans' blue dye in trachea, read-out: ID50, μg/kg, i.v.
Experimental: Guinea pigs (Hartley type white male guinea pige), (n=6) were anesthetized with 35 mg/kg of pentobarbital injected intraperitoneally (i.p.), then test compounds were administered intravenously (i.v.). After 5 minutes, a mixed solution of capsaicin ([…]) and Evans' blue dye (20 mg/kg) was administered intravenously to cause reaction. Ten minutes later, test animals were sacrificed by cutting the aorta, then perfused through pulmonary artery with 50 ml of physiological saline. The trachea was excised, and its wet weight was measure. The trachea was incubated at room temperature in 1 ml of acetone-0.3% sodium sulfate (7:3) overnight and Evans' blue dye was extracted from the trachea. The extract solution was centrifuged at 2800 rpm for 5 minutes. The amount of Evans' blue dye in the supernatant was quantified by measuring absorbance at […].
The reaction of accelerating the permeability of blood vessels is expressed in terms of the amount of Evans' blue (μg) per trachea unit weight (g) and the effect of drug was evaluated by calculating the degree of inhibition (% inhibition) according to the following equation: […]

T1 sequence (P25103 whole entry): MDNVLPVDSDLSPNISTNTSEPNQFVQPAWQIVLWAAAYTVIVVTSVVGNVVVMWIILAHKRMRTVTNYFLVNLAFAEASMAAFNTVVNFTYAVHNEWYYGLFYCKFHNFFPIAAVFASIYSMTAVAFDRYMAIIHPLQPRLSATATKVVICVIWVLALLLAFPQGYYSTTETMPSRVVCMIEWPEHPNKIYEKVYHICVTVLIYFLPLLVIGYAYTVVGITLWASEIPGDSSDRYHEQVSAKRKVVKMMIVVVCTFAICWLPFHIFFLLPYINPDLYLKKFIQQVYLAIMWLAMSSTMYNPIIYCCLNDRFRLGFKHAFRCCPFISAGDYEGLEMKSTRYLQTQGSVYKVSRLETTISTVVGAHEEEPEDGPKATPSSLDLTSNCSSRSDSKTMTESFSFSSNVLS

SMILES | melting point [°C] | pIC50 [1] | ED50 [2] [µg/kg] | Degree of Inhibition (%) ([2]; Dosage (i.v.) 100 μg/kg)
Cc1cc(C)cc(CN2C[C@H](C)CCn3c(c(-c4ccc(Cl)c(Cl)c4)c4cccnc4c3=O)C2=O)c1 [Example 11, (9R)-5-(3,4-dichlorophenyl)-7-(3,5-dimethylbenzyl)-6,7,8,9,10,11-hexahydro-9-methyl-6,13-dioxo-13H-[1,4]diazosino[2,1-g][1,7]napththylidine] | 137 to 139 | 9.09 |  | 
COc1cc(CN2C[C@H](C)CCn3c(c(-c4ccc(F)cc4)c4cccnc4c3=O)C2=O)cc(OC)c1 [Example 12, (9R)-7-(3,5-dimethoxybenzyl)-5-(4-fluorophenyl)-6,7,8,9,10,11-hexahydro-9-methyl-6,13-dioxo-13H-[1,4]diazosino[2,1-g][1,7]napththylidine] | 192 to 193 | 8.82 |  | 
COc1cc(CN2C[C@H](C)CCn3c(c(-c4ccc(Cl)cc4)c4cccnc4c3=O)C2=O)cc(OC)c1 [Example 13, (9R)-5-(4-chlorophenyl)-7-(3,5-dimethoxybenzyl)-6,7,8,9,10,11-hexahydro-9-methyl-6,13-dioxo-13H-[1,4]diazosino[2,1-g][1,7]napththylidine] | 229 to 230 | 8.96 |  | 
Cc1ccc(-c2c3n(c(=O)c4ncccc24)CCCCN(Cc2cc(C(F)(F)F)cc(C(F)(F)F)c2)C3=O)cc1 [Reference Example 57, 7-[3,5-Bis(trifluoromethyl)benzyl]-6,7,8,9,10,11-hexahydro-5-(4-methylphenyl)-6,13-dioxo-13H-[1,4]diazocino[2,1-g][1,7]naphthyridine] |  | 9.12 | 4.2 | 
Cc1ccc(-c2c3n(c(=O)c4ncccc24)CCCCCN(Cc2cc(C(F)(F)F)cc(C(F)(F)F)c2)C3=O)cc1 [Reference Example 60, 7-[3,5-Bis(trifluoromethyl)benzyl]-6,7,8,9,10,11,12,14-octahydro-5-(4-methylphenyl)-6,14-dioxo[1,4]diazonino[2,1-g][1,7]naphthyridine] |  |  | 11 | 
O=C1c2c(-c3ccccc3)c3cccnc3c(=O)n2CCCN1Cc1cc(C(F)(F)F)cc(C(F)(F)F)c1 [Reference Example 61, 7-[3,5-Bis(trifluoromethyl)benzyl]-6,7,8,9,10,12-hexahydro-6,12-dioxo-5-phenyl[1,4]diazepino[2,1-g][1,7]naphthyridine] |  |  | 2.6 | 
Cc1ccc(-c2c3n(c(=O)c4ncccc24)C[C@H](C)CN(Cc2cc(C(F)(F)F)cc(C(F)(F)F)c2)C3=O)cc1 [Reference Example 66, (9R)-7-[3,5-Bis(trifluoromethyl)benzyl]-6,7,8,9,10,12-hexahydro-9-methyl-5-(4-methylphenyl)-6,12-dioxo[1,4]diazepino[2,1-g][1,7]naphthyridine] | 179 to 180 |  | 41 | 
Cc1ccc(-c2c3n(c(=O)c4ncccc24)C[C@@H](C)CN(Cc2cc(C(F)(F)F)cc(C(F)(F)F)c2)C3=O)cc1 [Reference Example 68, (9S)-7-[3,5-Bis(trifluoromethyl)benzyl]-6,7,8,9,10,12-hexahydro-9-methyl-5-(4-methylphenyl)-6,12-dioxo[1,4]diazepino[2,1-g][1,7]naphthyridine] | 179 to 180 |  | 3.2 | 
CC(=O)OCc1cc(-c2ccccc2)c2c(n1)OCCN(Cc1cc(C(F)(F)F)cc(C(F)(F)F)c1)C2=O [Reference Example 91, 8-Acetoxymethyl-4-[3,5-bis(trifluoromethyl)benzyl]-2,3,4,5-tetrahydro-5-oxo-6-phenylpyrido[3,2-f][1,4]oxazepine] | 122 to 124 | 9.55 |  | 
CC(=O)OCc1cc(-c2ccccc2)c2c(n1)OCCCN(Cc1cc(C(F)(F)F)cc(C(F)(F)F)c1)C2=O [Reference Example 92, 9-Acetoxymethyl-5-[3,5-bis(trifluoromethyl)benzyl]-2,3,4,5-tetrahydro-6-oxo-7-phenyl-6H-pyrido[2,3-b][1,5]oxazocine] | 156 to 157 | 9.13 |  | 
C[C@@H]1CCn2c(c(-c3ccc(CO)cc3)c3cccnc3c2=O)C(=O)N(Cc2cc(C(F)(F)F)cc(C(F)(F)F)c2)C1 [Reference Example 137, (9R)-7-[3,5-bis(trifluoromethyl)benzyl]-6,7,8,9,10,11-hexahydro-5-(4-hydroxymethylphenyl)-9-methyl-6,13-dioxo-13H-[1,4]diazosino[2,1-g][1,7]napththylidine] | 240 to 241 | 9.08 | 2.5 | 

Second part, led by results:

melting point [°C] | pIC50 [1] | SMILES | ED50 [2] [µg/kg] | Degree of Inhibition (%) ([2]; Dosage (i.v.) 100 μg/kg)
194 to 195 | 9.55 | Cc1ccc(-c2c3n(c(=O)c4ncccc24)CCCN(Cc2cc(C(F)(F)F)cc(C(F)(F)F)c2)C3=O)cc1 [Reference Example 56, 7-[3,5-Bis(trifluoromethyl)benzyl]-6,7,8,9,10,12-hexahydro-5-(4-methylphenyl)-6,12-dioxo[1,4]diazepino[2,1-g][1,7]naphthyridine] | 7.2 | 
 | 8.92 | O=C1c2c(-c3ccccc3)c3cccnc3c(=O)n2CCCCN1Cc1cc(C(F)(F)F)cc(C(F)(F)F)c1 [Reference Example 62, 7-[3,5-Bis(trifluoromethyl)benzyl]-6,7,8,9,10,11-hexahydro-6,13-dioxo-5-phenyl-13H-[1,4]diazocino[2,1-g][1,7]naphthyridine] | 3.2 | 
150 to 152 | 9.77 | C[C@H]1CN(Cc2cc(C(F)(F)F)cc(C(F)(F)F)c2)C(=O)c2c(-c3ccccc3)c3cccnc3c(=O)n2C1 [Reference Example 67, (9S)-7-[3,5-Bis(trifluoromethyl)benzyl]-6,7,8,9,10,12-hexahydro-9-methyl-6,12-dioxo-5-phenyl[1,4]diazepino[2,1-g][1,7]naphthyridine] | 1.6 | 
245 to 247 | 9.64 | C[C@@H]1CCn2c(c(-c3ccccc3)c3cccnc3c2=O)C(=O)N(Cc2cc(C(F)(F)F)cc(C(F)(F)F)c2)C1 [Reference Example 71, (9R)-7-[3,5-Bis(trifluoromethyl)benzyl]-6,7,8,9,10,11-hexahydro-9-methyl-6,13-dioxo-5-phenyl-13H-[1,4]diazocino[2,1-g] [1,7]naphthyridine] | 1.9 | 
 | 8.96 | Cc1cnc2c(c1-c1ccccc1)C(=O)N(Cc1cc(C(F)(F)F)cc(C(F)(F)F)c1)CCO2 [Reference Example 77, 4-[3,5-Bis(trifluoromethyl)benzyl]-2,3,4,5-tetrahydro-7-methyl-5-oxo-6-phenylpyrido[3,2-f][1,4]oxazepine] |  | 64.0* %
147 to 148 | 9.44 | Cc1cnc2c(c1-c1ccccc1)C(=O)N(Cc1cc(C(F)(F)F)cc(C(F)(F)F)c1)C[C@H](C)CO2 [Reference Example 85, (S)-5-[3,5-Bis(trifluoromethyl)benzyl]-2,3,4,5-tetrahydro-3,8-dimethyl-6-oxo-7-phenyl-6H-pyrido[2,3-b][1,5]oxazocine] |  | 
181 to 183 | 9.36 | Cc1cc(-c2ccccc2)c2c([n+]1[O-])OCCN(Cc1cc(C(F)(F)F)cc(C(F)(F)F)c1)C2=O [Reference Example 89, 4-[3,5-Bis(trifluoromethyl)benzyl]-2,3,4,5-tetrahydro-8-methyl-5-oxo-6-phenylpyrido[3,2-f][1,4]oxazepine 9-oxide] |  | 
183 to 184 | 9.38 | O=C1c2c(-c3ccccc3)cc(CCl)nc2OCCN1Cc1cc(C(F)(F)F)cc(C(F)(F)F)c1 [Reference Example 93, 4-[3,5-Bis(trifluoromethyl)benzyl]-8-chloromethyl-2,3,4,5-tetrahydro-5-oxo-6-phenylpyrido[3,2-f][1,4]oxazepine] |  | 
139 to 140 | 9.77 | COCc1cc(-c2ccccc2)c2c(n1)OCCN(Cc1cc(C(F)(F)F)cc(C(F)(F)F)c1)C2=O [Reference Example 94, 4-[3,5-Bis(trifluoromethyl)benzyl]-2,3,4,5-tetrahydro-8-methoxymethyl-5-oxo-6-phenylpyrido[3,2-f][1,4]oxazepine] |  | 
186 to 188 | 9.92 | CN(C)Cc1cc(-c2ccccc2)c2c(n1)OCCN(Cc1cc(C(F)(F)F)cc(C(F)(F)F)c1)C2=O [Reference Example 99, 4-[3,5-Bis(trifluoromethyl)benzyl]-8-dimethylaminomethyl-2,3,4,5-tetrahydro-5-oxo-6-phenylpyrido[3,2-f][1,4]oxazepine] |  | 
